Values quoted from earlier work, collected in US12268662B2, “Formulations comprising carbachol and brimonidine to enhance anti- presbyopia effects” (VISUS THERAPEUTICS, INC., priority 2021, dated 2025).

Tests used:
[1] = not given; remark: listed apart in the source
[2] = not given; remark: listed apart in the source

## C[N+](C)(C)CCOC(N)=O [Carbachol]
other
  pKa: about 15
[1]
  log P: −3.78
[2]
  solubility: 1 gm/mL
